Patent publication US9963660B2, “Method of cleaning with enhanced bacteriostatic action using a composition of alcohol and lactate esters” (Vertec Biosolvent, Inc., priority 2015, dated 2018)

What was measured:
[1] = for Viscosity: @ 25 C.
Source text: Properties of solvents are often evaluated and expressed in measured and calculated values of solubility parameters and a few other physical constants.

[2] = Peanut butter removal from coated metal mesh strips (cleaning/solvating action); settings: neat solvents, 40° C., 20 minutes dip, 90 minutes drying
Source text: Peanut butter is a complex mixture of fats, carbohydrates and proteins that are emulsified in processing equipment under controlled conditions. Because of its composition that contains all the major food groups and because the product is made by controlled food processing methods, peanut butter was chosen for an initial cleaning examination. Commercially available […]® peanut butter made by Best Foods Company was used. Commercially available metal screen mesh (size 20 mesh) was cut into small (25 mm×75 mm), equal sized strips that were dipped into heated (about 50° C.) peanut butter and then drip dried in air. […] The strips were then dried under forced air at room temperature and their weights were measured periodically. After 90 minutes of drying the test results were evaluated to determine the comparative differences between the effects of the solvent compositions. Commercial grade of ethanol is typically denatured by small quantities of additives. Ethyl acetate is an approved denaturant for ethanol and it is non-toxic for food and biological related applications. In all of the examples for this invention the ethanol used was denatured by about 5% (w/w) ethyl acetate.

[3] = tested on: Listeria Monocytogenis ATCC 19115; test: MiniTox bacteriostatic (MIC) test in microtiter plates; assay type: cell-based; settings: diluted to the same extent as the blend
Source text: (§1) Methods to determine minimum inhibitory concentrations (MIC) of biocides or bacteriostatic agents that work in processing liquids to inhibit biological growth have been developed and optimized (U.S. Pat. No. 5,206,151). Typically, such MIC determinations involve (a) obtaining a known volume aliquot of the contaminated aqueous system and (b) adding thereto a known amount of an oxidation reduction indicator dye, which indicator dye is capable of reacting with dehydrogenase enzymes produced by the microbiological organisms, and also (c) adding sufficient nutrients capable of accelerating microbiological organism activity, thereby forming a reaction product between reducing enzymes and the oxidation-reduction indicator dye. Multiple aliquots of the indicator dye treated and nutrient treated, aqueous system are transferred to a microtitration plate containing multiple sample wells (d), each well containing but one of the multiple aliquots. (e) Serially diluted amounts of at least one antimicrobial agent is added to at least one column (or row) of these sample wells on the titration plate, provided that a single column (or row) is treated with only one antimicrobial agent, that at least one column (or row) is left untreated to thereby form a treated titration plate. The treated titration plate is incubated at a temperature essentially equivalent to the temperature of the contaminated aqueous system from which the aliquot was originally taken and maintained for a period of time sufficient to develop the change in the indicator dye color by the reaction of the indicator dye with reducing enzymes produced by nutrient acceleration of microbiological metabolism (f). The first change in color in dye relative to the untreated column is noted (g) to determine the minimum inhibitor concentration of antimicrobial agent that inhibits growth of microbiological organism contained in the contaminated aqueous system. Such a method is optimized under the Trademark of MiniToxTM and tests are routinely practiced and results provided by microbiological testing laboratories such as: The MicroStar Lab Ltd located at 130 Erick Street in Crystal Lake, Ill. 60014. […] This solution was kept as is at room temperature and hydrolysis of the ester continued. This solution was serially diluted with broth and media components for the MiniTox tests in microtiter plates. Two bacterial cultures Salmonella Choleraesuis ATCC 10708 and Listeria Monocytogenis ATCC 19115 were used for the studies. Bacteria of the Salmonella species are known pathogens that contaminate meat and vegetable types of food and Listeria species are known to contaminate milk and related foods.

[4] = tested on: Salmonella Choleraesuis ATCC 10708; test: as above; assay type: cell-based; settings: diluted to the same extent as the blend
Source text: as §1

Row | SMILES | SPd (Disperse solubility parameter) [1] | SPh (hydrogen bonding parameter) [1] | SPo (Hildebrand solubility parameter) [1] | SPp (Polar solubility parameter) [1] | Surface Tension [1] | Viscosity [1] | Percent Removal [2] | Bacteriostatic activity alone, diluted to the same extent [3] | Bacteriostatic activity alone, diluted to the same extent [4]
1 | CCO [Ethanol] | 7.7 | 9.5 | 13.0 | 4.3 | 22.2 mN/m | 0.43 Cp | 20.4% | does not exhibit bacteriostatic activity | does not exhibit bacteriostatic activity
2 | CCOC(=O)C(C)O (stereo not drawn) [Ethyl lactate] |  | 6.1 |  |  | 28.6 mN/m | 2.41 Cp | 7.3% | does not exhibit bacteriostatic activity | does not exhibit bacteriostatic activity
